Laboratory results published in ChEMBL document CHEMBL5678818, “Discovery of potent SOS1 inhibitors that block RAS activation via disruption of the RAS-SOS1 interaction” (Proc Natl Acad Sci U S A, 2019).

Experiments:
[1] = molecular target: MAP kinase-activated protein kinase 2 (Homo sapiens) (UniProt P49137); experiment: Inhibition of MAPKAPK2 (unknown origin) assessed as residual activity at 100 nM by KINOMEscan analysis relative to control
[2] = molecular target: Citron Rho-interacting kinase (Homo sapiens) (UniProt O14578); experiment: Inhibition of CIT (unknown origin) assessed as residual activity at 100 nM by KINOMEscan analysis relative to control
Citron Rho-interacting kinase (Homo sapiens), sequence (O14578 whole entry): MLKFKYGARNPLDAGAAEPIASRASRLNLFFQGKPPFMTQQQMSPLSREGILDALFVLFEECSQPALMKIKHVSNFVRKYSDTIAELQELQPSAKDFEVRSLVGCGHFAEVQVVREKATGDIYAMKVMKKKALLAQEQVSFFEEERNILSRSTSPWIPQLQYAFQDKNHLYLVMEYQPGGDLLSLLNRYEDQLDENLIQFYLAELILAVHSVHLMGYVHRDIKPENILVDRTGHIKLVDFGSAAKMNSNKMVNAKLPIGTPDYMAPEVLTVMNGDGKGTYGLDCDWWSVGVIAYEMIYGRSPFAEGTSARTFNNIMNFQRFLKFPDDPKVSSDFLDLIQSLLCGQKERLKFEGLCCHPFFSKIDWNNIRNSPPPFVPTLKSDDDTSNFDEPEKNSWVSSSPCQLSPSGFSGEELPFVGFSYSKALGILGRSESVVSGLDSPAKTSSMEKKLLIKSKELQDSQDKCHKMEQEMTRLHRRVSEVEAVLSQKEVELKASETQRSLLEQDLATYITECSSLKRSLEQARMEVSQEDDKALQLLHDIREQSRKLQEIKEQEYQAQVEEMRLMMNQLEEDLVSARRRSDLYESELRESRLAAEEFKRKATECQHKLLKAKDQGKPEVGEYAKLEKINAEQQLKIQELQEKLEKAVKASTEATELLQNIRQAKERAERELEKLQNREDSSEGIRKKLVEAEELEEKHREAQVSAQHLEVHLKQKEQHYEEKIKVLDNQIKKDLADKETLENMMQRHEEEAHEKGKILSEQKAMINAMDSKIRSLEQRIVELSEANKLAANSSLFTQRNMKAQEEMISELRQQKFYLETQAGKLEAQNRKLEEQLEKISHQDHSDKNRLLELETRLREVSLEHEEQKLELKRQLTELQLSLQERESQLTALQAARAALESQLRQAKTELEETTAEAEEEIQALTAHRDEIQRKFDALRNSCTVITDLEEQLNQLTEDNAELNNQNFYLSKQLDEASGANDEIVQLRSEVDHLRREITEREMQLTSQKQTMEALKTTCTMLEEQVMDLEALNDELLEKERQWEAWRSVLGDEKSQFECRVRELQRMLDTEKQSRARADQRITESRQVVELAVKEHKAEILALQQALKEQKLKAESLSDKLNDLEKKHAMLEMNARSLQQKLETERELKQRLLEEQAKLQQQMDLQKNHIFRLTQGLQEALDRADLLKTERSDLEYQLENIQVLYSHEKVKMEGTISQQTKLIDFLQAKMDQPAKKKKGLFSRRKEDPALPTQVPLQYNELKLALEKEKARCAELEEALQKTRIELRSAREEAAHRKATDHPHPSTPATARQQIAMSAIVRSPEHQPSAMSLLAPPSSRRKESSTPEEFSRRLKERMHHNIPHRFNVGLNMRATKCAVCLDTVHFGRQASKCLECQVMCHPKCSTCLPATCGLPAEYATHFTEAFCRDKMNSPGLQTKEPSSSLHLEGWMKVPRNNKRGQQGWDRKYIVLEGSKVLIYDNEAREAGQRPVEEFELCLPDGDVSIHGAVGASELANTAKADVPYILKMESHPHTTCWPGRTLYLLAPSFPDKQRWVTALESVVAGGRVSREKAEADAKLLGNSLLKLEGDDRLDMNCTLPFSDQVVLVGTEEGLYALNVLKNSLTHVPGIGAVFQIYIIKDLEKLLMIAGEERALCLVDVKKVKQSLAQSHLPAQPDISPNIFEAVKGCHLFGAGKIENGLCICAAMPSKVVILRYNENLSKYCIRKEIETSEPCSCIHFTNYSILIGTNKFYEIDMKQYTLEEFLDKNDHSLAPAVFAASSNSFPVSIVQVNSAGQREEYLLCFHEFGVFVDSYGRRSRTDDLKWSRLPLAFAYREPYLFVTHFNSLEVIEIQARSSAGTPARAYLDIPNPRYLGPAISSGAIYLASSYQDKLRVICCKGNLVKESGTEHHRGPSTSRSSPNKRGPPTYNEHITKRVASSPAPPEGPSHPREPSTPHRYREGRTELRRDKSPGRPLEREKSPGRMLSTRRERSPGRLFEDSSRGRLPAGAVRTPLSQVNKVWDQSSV

[3] = molecular target: T1, Tyrosine-protein kinase TXK (Homo sapiens) (UniProt P42681); experiment: Inhibition of TXK (unknown origin) assessed as residual activity at 100 nM by KINOMEscan analysis relative to control
T1 sequence (whole entry): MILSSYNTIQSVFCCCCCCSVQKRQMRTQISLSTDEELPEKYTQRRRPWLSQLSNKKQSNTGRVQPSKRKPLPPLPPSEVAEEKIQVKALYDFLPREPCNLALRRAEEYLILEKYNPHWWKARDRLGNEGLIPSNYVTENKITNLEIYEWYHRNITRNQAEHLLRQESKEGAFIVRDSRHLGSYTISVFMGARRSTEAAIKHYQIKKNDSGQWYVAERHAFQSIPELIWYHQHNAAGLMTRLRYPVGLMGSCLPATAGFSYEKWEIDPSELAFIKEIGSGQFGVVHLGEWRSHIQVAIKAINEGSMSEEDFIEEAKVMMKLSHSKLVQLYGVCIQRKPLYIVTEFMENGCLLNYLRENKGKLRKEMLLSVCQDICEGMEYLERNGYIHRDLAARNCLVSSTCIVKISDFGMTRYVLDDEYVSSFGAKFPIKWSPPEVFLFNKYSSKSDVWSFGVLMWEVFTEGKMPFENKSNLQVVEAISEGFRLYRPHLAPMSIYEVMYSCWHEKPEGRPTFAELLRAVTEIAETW

[4] = molecular target: Glycogen synthase kinase-3 beta (Homo sapiens) (UniProt P49841); experiment: Inhibition of GSK3B (unknown origin) assessed as residual activity at 100 nM by KINOMEscan analysis relative to control
Glycogen synthase kinase-3 beta (Homo sapiens), sequence (P49841 whole entry, looked up): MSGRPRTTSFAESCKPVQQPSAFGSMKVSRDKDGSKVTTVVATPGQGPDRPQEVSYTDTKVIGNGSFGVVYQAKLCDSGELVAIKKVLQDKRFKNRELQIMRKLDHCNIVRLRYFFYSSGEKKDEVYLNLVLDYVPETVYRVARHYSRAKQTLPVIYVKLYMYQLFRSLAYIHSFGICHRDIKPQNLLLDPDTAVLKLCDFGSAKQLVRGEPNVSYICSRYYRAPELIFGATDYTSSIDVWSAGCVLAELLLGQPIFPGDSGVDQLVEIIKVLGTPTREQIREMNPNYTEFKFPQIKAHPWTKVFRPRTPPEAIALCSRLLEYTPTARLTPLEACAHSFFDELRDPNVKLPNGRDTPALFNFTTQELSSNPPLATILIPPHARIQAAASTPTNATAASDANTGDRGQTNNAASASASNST

[5] = tested on: Tyrosine-protein kinase ABL1 (Homo sapiens), P00519 [Y253F]; experiment: Inhibition of phosphorylated ABL1 Y253F mutant (unknown origin) assessed as residual activity at 100 nM by KINOMEscan analysis relative to control
[6] = tested on: Proto-oncogene tyrosine-protein kinase receptor Ret (Homo sapiens), P07949 [V804L]; experiment: Inhibition of RET V804L mutant (unknown origin) assessed as residual activity at 100 nM by KINOMEscan analysis relative to control
Proto-oncogene tyrosine-protein kinase receptor Ret (Homo sapiens), P07949 [V804L], sequence (P07949 whole entry V804L): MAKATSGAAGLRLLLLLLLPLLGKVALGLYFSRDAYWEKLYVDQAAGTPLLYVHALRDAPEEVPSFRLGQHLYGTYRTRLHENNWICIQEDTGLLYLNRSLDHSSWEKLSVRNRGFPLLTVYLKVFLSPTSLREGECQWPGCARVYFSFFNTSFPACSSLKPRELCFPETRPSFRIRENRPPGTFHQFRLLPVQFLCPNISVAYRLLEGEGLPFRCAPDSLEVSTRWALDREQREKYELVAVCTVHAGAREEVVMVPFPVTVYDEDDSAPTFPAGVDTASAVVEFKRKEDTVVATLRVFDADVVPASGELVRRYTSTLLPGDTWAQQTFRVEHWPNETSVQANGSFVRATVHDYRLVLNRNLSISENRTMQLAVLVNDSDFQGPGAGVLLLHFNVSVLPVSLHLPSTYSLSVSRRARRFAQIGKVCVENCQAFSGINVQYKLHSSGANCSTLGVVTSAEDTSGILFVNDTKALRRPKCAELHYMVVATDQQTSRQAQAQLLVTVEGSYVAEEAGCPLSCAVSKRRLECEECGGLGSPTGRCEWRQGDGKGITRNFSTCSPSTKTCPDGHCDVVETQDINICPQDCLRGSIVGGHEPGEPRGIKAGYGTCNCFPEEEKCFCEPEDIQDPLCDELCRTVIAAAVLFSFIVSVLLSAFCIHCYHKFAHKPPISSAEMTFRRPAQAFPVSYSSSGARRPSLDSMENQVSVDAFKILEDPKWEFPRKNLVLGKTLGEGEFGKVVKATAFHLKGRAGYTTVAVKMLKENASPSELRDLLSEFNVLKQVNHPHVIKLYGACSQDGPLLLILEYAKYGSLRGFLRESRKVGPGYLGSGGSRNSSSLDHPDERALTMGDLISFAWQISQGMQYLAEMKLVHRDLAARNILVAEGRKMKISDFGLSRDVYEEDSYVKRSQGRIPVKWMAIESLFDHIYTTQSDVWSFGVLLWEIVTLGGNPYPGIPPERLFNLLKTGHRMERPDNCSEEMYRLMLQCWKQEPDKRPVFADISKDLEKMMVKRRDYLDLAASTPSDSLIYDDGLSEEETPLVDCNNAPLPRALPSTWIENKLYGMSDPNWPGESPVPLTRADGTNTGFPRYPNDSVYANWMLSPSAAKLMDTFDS

[7] = molecular target: T2, Serine/threonine-protein kinase Nek9 (Homo sapiens) (UniProt Q8TD19); experiment: Inhibition of NEK9 (unknown origin) assessed as residual activity at 100 nM by KINOMEscan analysis relative to control
T2 sequence (whole entry): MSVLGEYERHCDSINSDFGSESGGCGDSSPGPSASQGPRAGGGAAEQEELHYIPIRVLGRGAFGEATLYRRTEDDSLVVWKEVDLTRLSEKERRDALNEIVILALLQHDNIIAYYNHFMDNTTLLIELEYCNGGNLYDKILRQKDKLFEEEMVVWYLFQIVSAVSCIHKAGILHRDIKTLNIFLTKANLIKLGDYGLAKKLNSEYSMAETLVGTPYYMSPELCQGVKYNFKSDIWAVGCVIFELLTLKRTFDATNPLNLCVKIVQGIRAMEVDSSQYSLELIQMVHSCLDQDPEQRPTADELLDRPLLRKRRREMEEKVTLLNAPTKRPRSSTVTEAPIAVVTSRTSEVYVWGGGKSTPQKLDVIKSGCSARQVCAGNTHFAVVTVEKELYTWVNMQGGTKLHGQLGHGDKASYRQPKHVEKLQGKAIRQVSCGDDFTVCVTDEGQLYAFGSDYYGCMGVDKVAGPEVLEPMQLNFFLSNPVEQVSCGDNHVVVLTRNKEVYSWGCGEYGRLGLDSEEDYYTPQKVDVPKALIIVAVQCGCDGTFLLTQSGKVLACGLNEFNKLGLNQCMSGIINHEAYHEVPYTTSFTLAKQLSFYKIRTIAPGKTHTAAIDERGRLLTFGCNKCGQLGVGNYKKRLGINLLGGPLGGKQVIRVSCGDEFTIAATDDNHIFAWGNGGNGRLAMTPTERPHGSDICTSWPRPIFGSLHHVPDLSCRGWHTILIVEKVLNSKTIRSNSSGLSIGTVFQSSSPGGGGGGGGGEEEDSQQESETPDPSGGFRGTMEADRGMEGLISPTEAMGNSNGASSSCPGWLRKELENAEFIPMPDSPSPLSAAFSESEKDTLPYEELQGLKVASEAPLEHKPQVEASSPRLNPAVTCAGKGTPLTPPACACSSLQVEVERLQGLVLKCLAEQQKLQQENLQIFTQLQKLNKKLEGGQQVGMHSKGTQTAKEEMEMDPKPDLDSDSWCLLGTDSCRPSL

[8] = molecular target: Ephrin type-A receptor 2 (Homo sapiens) (UniProt P29317); experiment: Inhibition of EPHA2 (unknown origin) assessed as residual activity at 100 nM by KINOMEscan analysis relative to control
Ephrin type-A receptor 2 (Homo sapiens), sequence (P29317 whole entry): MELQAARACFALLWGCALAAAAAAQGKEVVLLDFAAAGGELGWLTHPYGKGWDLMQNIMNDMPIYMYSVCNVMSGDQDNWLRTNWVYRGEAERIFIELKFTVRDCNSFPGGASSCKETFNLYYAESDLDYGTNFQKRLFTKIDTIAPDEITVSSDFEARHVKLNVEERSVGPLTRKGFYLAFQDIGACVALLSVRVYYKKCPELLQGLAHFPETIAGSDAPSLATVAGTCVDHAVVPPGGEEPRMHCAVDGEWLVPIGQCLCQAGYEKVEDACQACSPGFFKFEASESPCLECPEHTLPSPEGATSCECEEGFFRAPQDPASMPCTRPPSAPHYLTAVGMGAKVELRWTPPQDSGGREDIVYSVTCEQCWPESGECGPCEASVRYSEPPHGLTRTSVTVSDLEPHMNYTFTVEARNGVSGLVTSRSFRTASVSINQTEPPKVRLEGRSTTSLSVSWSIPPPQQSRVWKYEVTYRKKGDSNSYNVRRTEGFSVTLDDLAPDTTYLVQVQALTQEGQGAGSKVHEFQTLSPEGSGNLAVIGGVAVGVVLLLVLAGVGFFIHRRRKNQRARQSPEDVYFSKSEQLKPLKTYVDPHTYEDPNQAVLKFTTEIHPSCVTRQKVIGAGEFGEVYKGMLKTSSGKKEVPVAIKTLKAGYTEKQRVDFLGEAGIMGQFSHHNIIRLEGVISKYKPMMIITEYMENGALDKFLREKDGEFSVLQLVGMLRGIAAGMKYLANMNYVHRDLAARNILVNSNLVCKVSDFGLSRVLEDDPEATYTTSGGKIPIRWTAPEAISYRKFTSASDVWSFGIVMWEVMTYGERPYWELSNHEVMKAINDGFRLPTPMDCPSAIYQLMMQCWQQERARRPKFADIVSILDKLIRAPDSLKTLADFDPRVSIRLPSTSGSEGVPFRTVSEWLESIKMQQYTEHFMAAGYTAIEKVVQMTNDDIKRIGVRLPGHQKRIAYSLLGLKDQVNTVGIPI

[9] = molecular target: T3, Interleukin-1 receptor-associated kinase 4 (Homo sapiens) (UniProt Q9NWZ3); experiment: Inhibition of IRAK4 (unknown origin) assessed as residual activity at 100 nM by KINOMEscan analysis relative to control
T3 sequence (whole entry): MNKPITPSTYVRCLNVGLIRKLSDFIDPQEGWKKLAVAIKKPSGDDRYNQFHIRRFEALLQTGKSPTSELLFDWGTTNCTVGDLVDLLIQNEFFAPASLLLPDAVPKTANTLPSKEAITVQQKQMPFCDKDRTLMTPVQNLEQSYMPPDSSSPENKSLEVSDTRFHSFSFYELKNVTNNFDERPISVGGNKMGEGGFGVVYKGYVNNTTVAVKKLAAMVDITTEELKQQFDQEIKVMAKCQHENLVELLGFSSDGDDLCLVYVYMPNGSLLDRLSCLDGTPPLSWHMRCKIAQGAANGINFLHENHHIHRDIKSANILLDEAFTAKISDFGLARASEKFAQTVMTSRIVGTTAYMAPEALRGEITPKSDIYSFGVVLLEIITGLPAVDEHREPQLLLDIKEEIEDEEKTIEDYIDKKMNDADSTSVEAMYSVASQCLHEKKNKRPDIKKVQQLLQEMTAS

MAP kinase-activated protein kinase 2 (Homo sapiens), sequence (P49137 whole entry, looked up): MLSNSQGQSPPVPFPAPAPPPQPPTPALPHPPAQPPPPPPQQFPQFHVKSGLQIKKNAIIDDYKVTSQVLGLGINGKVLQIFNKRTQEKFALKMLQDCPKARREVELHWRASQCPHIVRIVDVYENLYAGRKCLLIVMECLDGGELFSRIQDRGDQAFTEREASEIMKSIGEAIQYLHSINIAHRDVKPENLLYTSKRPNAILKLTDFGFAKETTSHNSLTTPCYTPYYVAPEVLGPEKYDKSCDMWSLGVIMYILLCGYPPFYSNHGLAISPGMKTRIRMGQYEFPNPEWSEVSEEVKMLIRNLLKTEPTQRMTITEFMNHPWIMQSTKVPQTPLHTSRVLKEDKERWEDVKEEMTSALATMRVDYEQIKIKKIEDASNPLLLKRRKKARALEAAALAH

COc1cc2ncnc(N[C@H](C)c3cccc4ccccc34)c2cc1OC
Activity [1]: 83%
Activity [2]: 83%
Activity [3]: 67%
Activity [4]: 94%
Activity [5]: 98%
Activity [6]: 99%
Activity [7]: 100%
Activity [8]: 82%
Activity [9]: 94%
